Laboratory results from paper PMC8725448 (Journal of Cannabis Research, 2022).
Like-named read-outs stand apart in the source and are kept apart here.

Tests used:
[1] = Plasma concentrations in experimental Scn1a+/- mice after hyperthermia protocol; type: in vivo, mouse
Experimental: (§1) The plasma and brain samples were prepared for LC-MS/MS analysis as previously described (Anderson et al. [2019b], [2020]). Briefly, acetonitrile was used to precipitate proteins and extract CBGA methyl ester and olivetolic acid from the biological matrices. The brain samples were additionally filtered through Amicon Ultracel 3K (Merck-Millipore; Burlington, USA) filtration devices. The plasma and brain samples underwent supported-liquid extraction with methyl tert-butyl ether using Biotage Isolute SLE+ columns (Uppsala, SWE) and were then evaporated to dryness with N2. Residues were reconstituted in actetonitrile and 0.1% formic acid in water (1:1, v/v) for analysis using a Shimadzu Nexera ultra-HPLC coupled to a Shimadzu 8030 triple quadrupole mass spectrometer (Shimadzu Corp.; Kyoto, JPN). The mass spectrometer was operated in positive electrospray ionization mode for CBGA methyl ester and negative electrospray ionization mode for olivetolic acid with multiple reaction monitoring and the following mass transition pairs (m/z): 375.20 > 343.25, 375.20 > 219.10 and 375.20 > 251.15 (CBGA-methylester) and 223.25 > 179.25 (olivetolic acid). Quantification of analytes in the plasma and brain samples was achieved by comparing samples to standards prepared with known amounts of compound.
Hyperthermia-induced seizure experiments were conducted on male and female Scn1a^+/- mice at P14-16 as previously described (Hawkins et al. [2017]). No significant sex differences were observed so males and females were combined across groups. Briefly, for CBGA methyl ester experimental animals a RET-3 rectal temperature probe was inserted 30 min after i.p. injections of vehicle or CBGA methyl ester. Mice acclimated to the probe for 5 min before hyperthermia protocol began. Olivetolic acid experimental animals acclimated to the rectal temperature probe for 5 min then received an i.p. injection of vehicle or olivetolic acid immediately before the hyperthermia protocol was initiated. Mouse core body temperature was elevated 0.5°C every 2 min until the onset of first clonic convulsion with loss of posture or until 42.5°C was reached. The dose range (10, 30, or 100 mg/kg) was chosen to provide a point of direct comparison to CBGA, which is anticonvulsant at 30 and 100 mg/kg. Seizure threshold temperatures were compared in GraphPad Prism 8.2 (LaJolla, USA) using Mantel-Cox logrank test and p < 0.05 was considered statistically significant. Following the hyperthermia-induced seizure protocol, the plasma samples were isolated as described for the pharmacokinetic analysis from a cohort of experimental mice.

[2] = Pharmacokinetic analysis in mouse plasma and brain after i.p. injection; type: in vivo; conditions: for Kp: brain/plasma; for Kp / Cmax / AUC / Tmax / half-life: 10 mg/kg, mouse; for Kp / Cmax: i.p.
Experimental: Wildtype mice (postnatal day 21-28, P21-28) received an i.p. injection of 10 mg/kg CBGA methyl ester or olivetolic acid. At selected time points (15–120 min) mice were anesthetized with isoflurane, whole blood was collected by cardiac puncture and brains were harvested. The plasma was isolated by centrifugation and samples were stored at −80°C until assayed. Concentrations in the plasma and brain samples at each time point were averaged, and pharmacokinetic parameters were calculated by noncompartmental analysis as previously described (Hawkins et al. [2017]).
as §1

[3] = intraperitoneal, read-out: brain penetration
[4] = ip, from AUC values, read-out: Brain-plasma ratio
[5] = ip, brain, converted from ng/mg brain assuming density of 1 g/mL, read-out: Cmax

Structure (SMILES)	Plasma concentration ([1]; dose 10 mg/kg i.p.) [ng/mL]	Plasma concentration ([1]; dose 30 mg/kg i.p.) [ng/mL]	Plasma concentration ([1]; dose 100 mg/kg i.p.) [ng/mL]	Kp [2, 3]	Kp [2, 4]	improvement of brain-plasma ratio over CBGA ([2]; compared with CBGA of Anderson et al. 2019b)	Cmax [2, 5] [ng/mL]	AUC ([2]; ip, brain) [ng·h/mL]	Tmax ([2]; ip, brain) [min]	Cmax ([2]; ip, plasma, read-out: Cmax) [ng/mL]	AUC ([2]; ip, plasma) [ng·h/mL]	Tmax ([2]; ip, plasma) [min]	half-life ([2]; brain, ip) [min]	half-life ([2]; plasma, ip) [min]	Cmax ([2]; brain) [ng/mg brain]
CCCCCc1cc(O)c(C/C=C(\C)CCC=C(C)C)c(O)c1C(=O)OC [CBGA methyl ester]	837 ± 212	4700 ± 600	6200 ± 600	0.13	0.13	nearly a seven fold improvement	210 ± 30	367	30	1300 ± 300	2850	45	62	81	–
CCCCCc1cc(O)cc(O)c1C(=O)O [Olivetolic acid]	65000 ± 5000	89000 ± 12000	116000 ± 27000	0.01	0.01	–	450 ± 60	217	15	65000 ± 4000	18400	15	< 15	< 15	0.45 ± 0.06
